Several values for one entry are separate records, joined by “and”; a condition that tells them apart may be missing. Equal values may be shown once. One block for each compound: values may come before it.
Assays:
subject = conditions: in vivo
Description: The subject independently instilled 2 drops of the above compositions in each eye and the excess wiped from lids and lashes.
Stinging and Redness are based on a scale of 0 to 4 with 0 being none and 4 being the most severe.

[1] = Stability of aceclidine in solution at 25° C. and 4° C. by HPLC (Example 6); type: physicochemical
Protocol: 20 samples of the above composition were divided evenly and stored at 25° C. and 4° C. Prior to storage, initial concentrations of aceclidine were measured using […] (“HPLC”). The amount of aceclidine in each solution was calculated by the area under the principal peak compared to a reference solution of aceclidine. Samples were then subject to storage for 3 months. Aceclidine measurements were taken at 1, 2 and 3 months.

pupil = assay: Duration of miosis of muscarinic agonist with brimonidine (description); type: in vivo, human
Protocol: It is further observed that concentration of brimonidine above 0.15% w/v causes significant trigger of the alpha 1 receptor leading to ischemia and rebound redness, which neutralizes the benefit of the prolonged duration at concentrations from about 0.07% to about 0.15% w/v brimonidine.
Another surprising discovery of the present invention, is that when the pH of a composition comprising a muscarinic agonist and brimonidine is below about 6.0 the duration of miosis is prolonged up to 14 hours.
In a still further embodiment lower pH is virtually found to cause the formulation to remain on the ocular surface longer, and therefore provide more sustained microvessel constriction and reduced egress of active ingredients.

presbyopic subject = assay: 1.75% aceclidine in saline, LogMAR visual acuity of a presbyopic subject (Example 13); type: in vivo, human
Protocol: A 1.75% aceclidine in saline solution was formulated. One drop was instilled into each eye of a presbyopic subject. The visual acuity of the subject was tested both before and after instillation using a LogMAR chart.

presbyopic subjects = assay: Effect of aceclidine compositions on near and distance vision of presbyopic subjects aged 47 to 67 (Example 1); type: in vivo, human; conditions: for Effect: duration of effect; for Post Gtt 15″ L Post Dist: left eye distance vision; for Post Gtt 15″ L Post Near: left eye near vision; for Post Gtt 15″ R Post Dist: right eye distance vision; for Post Gtt 15″ R Post Near: right eye near vision
Protocol: As aceclidine is an […], the clinical effectiveness may vary with different ratios. For the present studies a nearly exact 50:50 ratio of stereoisomers was measured as best determined by polarimetry.
After administration of the composition all subjects experienced an improvement in their near vision that lasted from 7 to 12 hours.

subjects = assay: Modulation of aceclidine concentration in a preferred embodiment: stinging, redness, comfort, depth of focus (Example 2); type: in vivo, human
Protocol: Preferred embodiment: • Aceclidine 1.35% - 1.55% w/v; • Polyoxyl 40 stearate 5.5% w/v; • NaCl 0.037% w/v; • a viscosity agent, preferably CMC 0.80% w/v or an amount of Carbopol® 934 or 940 sufficient to achieve a viscosity of from about 5 to about 35 cps upon topical instillation, such as Carbopol® 940 at a concentration from about 0.09% to about 1.0% w/v; • BAK 0.015% w/v; and • a phosphate, citrate, citrophosphate, or acetate buffer from about 3 to about 10 mM, wherein the pH is from about 4.75 to about 6.0.
For 1.35% w/v aceclidine - • Stinging on topical instillation 0.25 / 4.0 (lasting about 2-5 seconds); • Induced redness at 10 minutes: 1.0 to 1.5/4.0; • Induced redness at 30 minutes: 0.0 to 0.25 / 4.0; • Comfort: very high. • Wetting: very high, the eye maintaining sensation of improved wetting for most of a 24-hour period after a single topical instillation. • Depth of Focus distance: excellent. • Depth of Focus near: excellent.
In testing the above formulations on several subjects, it was discovered that there is a slight range in clinical effect depending on the concentration of aceclidine, where 1.35% - 1.55% w/v aceclidine is preferred, but for which 1.35% w/v and 1.45% w/v confer the desired benefits on most subjects.

presbyopic patient = assay: Compositions containing little or no cycloplegic agent: reading vs baseline at 40 cm, duration, comfort, efficacy index (Example 7); type: in vivo, human; conditions: 1.75% aceclidine, 2.5% mannitol, 0.01% tropicamide, 5% polysorbate 80, no viscosity agent
Description: Aceclidine alone causes incidence migraine-like severe ciliary spasm (brow ache) and myopic blur. These effects are inversely correlated to age with subjects age 40 reporting the highest incidence and subject age 60+ reporting the lowest incidence. The addition of a cycloplegic agent reduces ciliary spasms and attendant brow ache, migranious headache, squeezing pressure around eyes or other symptoms of ciliary spasms. […] The addition of 2.5% w/v mannitol however does reduce the myopic effect of aceclidine. Increasing the aceclidine concentration overcomes this reduction in myopic effect seen with the addition of mannitol. […] Even more surprising, the concentration of the cycloplegic agent can be reduced or even eliminated in the presence of mannitol without an increase in ciliary spasm. […]
Further and unexpectedly, the addition of a nonionic surfactant increases both the quantitative measure of near vision improvement and the duration. […]
In brief, the score is calculated by multiplying the lines of improvement in near visual acuity by the number of hours the improvement lasts. […]

[2] = test system: emmetrope over the age of 45; assay: Miotic agent with or without tropicamide and carrier: near and distance vision of an emmetrope over the age of 45 (FIG. 2); type: in vivo, human
Description: Subject is an emmetrope over the age of 45 with a baseline near vision of 20.100 and baseline distance vision of 20.20. […] […] A proper drug carrier can also have a beneficial effect.

patients = conditions: cited from earlier work
[3] = aceclidine 1.1% composition with 0.125% w/v tropicamide
[4] = aceclidine 1.5% composition, object at 15 inches

Redness 1 hr (subject): 0.5
Stinging (subject): 0.25
Compound: Polysorbate 80

Redness 1 hr (subject): 1
Stinging (subject): 0.5
Compound: poloxamer 407

Compound: CC(=O)OC1CN2CCC1CC2 (racemic) [aceclidine]
Aceclidine remaining ([1]; 4° C., 1 month): 93%
Aceclidine remaining ([1]; 4° C., 2 months): 92%
Aceclidine remaining ([1]; 4° C., 3 months): 88%
Aceclidine remaining ([1]; 4° C., Initial): 100%
Aceclidine remaining ([1]; 25° C., 1 month): 92%
Aceclidine remaining ([1]; 25° C., 2 months): 75%
Aceclidine remaining ([1]; 25° C., 3 months): 50%
Aceclidine remaining ([1]; 25° C., Initial): 100%
Duration of miosis / efficacy for near depth of field improvement (pupil; aceclidine in a preferred vehicle, pupil sizes of 1.5 to 2.0 mm): 6 to 7 h
Duration of miosis (pupil; with the addition of brimonidine at 0.07% to 0.08%): 10 to 12 h
LogMAR score at 1-meter distance after instillation (presbyopic subject; 1.75% aceclidine in saline, one drop each eye): -0.12 LogMAR
LogMAR score at 45 centimeters distance after instillation (presbyopic subject; 1.75% aceclidine in saline, one drop each eye, 0.50 prior to instillation): 0.22 LogMAR
Time at which noticeable degradation in reading distance acuity began (presbyopic subject; post instillation): 4 h
Time improved reading distance acuity was maintained (presbyopic subject; post instillation): 3.5 h
Effect (presbyopic subjects; [3]): 12.00 h and 7.00 h
Post Gtt 15″ L Post Dist (presbyopic subjects; [3]): 20.15 and 20.20
Post Gtt 15″ L Post Near (presbyopic subjects; [3]): 20.15 and 20.25
Post Gtt 15″ R Post Dist (presbyopic subjects; [3]): 20.15 and 20.20
Post Gtt 15″ R Post Near (presbyopic subjects; [3]): 20.20 and 20.25
Effect (presbyopic subjects; aceclidine 1.5% composition): 9.00 h and 8.00 h
Post Gtt 15″ L Post Dist (presbyopic subjects; aceclidine 1.5% composition): 20.20 and 20.25 and 20.30
Post Gtt 15″ L Post Near (presbyopic subjects; [4]): 20.15 and 20.20 and 20.30
Post Gtt 15″ R Post Near (presbyopic subjects; [4]): 20.15 and 20.25 and 20.20
Post Gtt 15″ R Post Dist (presbyopic subjects; aceclidine 1.5% with 5.5% HPβCD, 0.75% CMC, 0.25% NaCl, 0.01% BAK): 20.20 and 20.25
Comfort (subjects; 1.35% w/v aceclidine): very high
Depth of Focus distance (subjects; 1.35% w/v aceclidine): excellent
Depth of Focus near (subjects; 1.35% w/v aceclidine): excellent
Duration of stinging (subjects; 1.35% w/v aceclidine preferred embodiment): 2 to 5 s
Stinging on topical instillation (subjects; 1.35% w/v aceclidine preferred embodiment, score out of 4.0): 0.25
Near vision improvement (presbyopic patient): up to 3 lines of vision acuity
Distance vision ([2]; 1.55% w/v aceclidine in saline): without any effect on the baseline distance vision
Near vision ([2]; 1.55% w/v aceclidine in saline): 20.40
Time period of near vision improvement ([2]; 1.55% w/v aceclidine in saline): 6 h
Near vision ([2]; aceclidine in carrier: 5.5% HPβCD, 0.75% CMC, 0.25% NaCl, 0.01% BAK): < 20.20
Near vision ([2]; aceclidine in the carrier with 0.042% w/v tropicamide): 20.15

Compound: Brc1c(NC2=NCCN2)ccc2nccnc12 [brimonidine]
Treated subjects with tachyphylaxis of pupil modulation (patients; brimonidine 0.20% w/v topically for night vision, within four weeks of use): ~100%
Patients with rebound redness (patients; brimonidine 0.20% w/v twice daily): 25%

From patent US20230310392A1, “COMPOSITIONS AND METHODS FOR THE TREATMENT OF EYE CONDITIONS” (Lenz Therapeutics, Inc., priority 2021, published 2023)
